The target in one test is T1, estrogen receptor (Bos taurus, UniProt P49884).
T1 construct: from tissue; host or cells: bovine uterus cytosol
T1 sequence (P49884 1-596): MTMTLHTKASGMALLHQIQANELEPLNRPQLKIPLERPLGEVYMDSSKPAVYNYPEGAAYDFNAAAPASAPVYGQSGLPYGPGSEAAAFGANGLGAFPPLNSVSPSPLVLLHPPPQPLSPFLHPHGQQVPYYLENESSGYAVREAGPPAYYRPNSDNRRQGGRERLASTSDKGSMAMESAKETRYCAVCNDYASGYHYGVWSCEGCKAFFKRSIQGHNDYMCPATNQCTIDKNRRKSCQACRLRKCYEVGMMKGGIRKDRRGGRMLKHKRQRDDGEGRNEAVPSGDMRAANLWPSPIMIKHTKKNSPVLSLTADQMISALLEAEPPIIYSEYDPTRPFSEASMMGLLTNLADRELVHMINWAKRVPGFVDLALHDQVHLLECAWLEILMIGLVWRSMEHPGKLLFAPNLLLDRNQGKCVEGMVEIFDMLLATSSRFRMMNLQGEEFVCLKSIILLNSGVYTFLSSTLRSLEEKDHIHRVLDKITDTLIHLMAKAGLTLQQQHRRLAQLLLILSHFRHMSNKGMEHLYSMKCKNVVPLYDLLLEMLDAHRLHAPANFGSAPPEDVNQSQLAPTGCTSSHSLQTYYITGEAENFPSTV
Description: Inhibition of 3H-estradiol binding to bovine uteral estrogen receptors. As to conditions: read-out: % of inhibition of 3H-estradiol binding, B, competitor 10^-6 M; 0.25 nM 3H-estradiol. The protocol: (§1) The hormonal activity of drugs described herein was further studied through testing their potential estrogenic, progestinic, mineralocorticoid and glucocorticoid activities. These activities were analyzed by monitoring the ability of the drugs to inhibit binding of the steroid hormones to their respective hormone receptors.

Test [1] concerns the target GABA receptor-chloride ionophore complex (GR complex). Description: [35S]TBPS binding modulation assay. As to conditions: for Max. Inhib., maximal % of specifically bound [35S]-TBPS displaced: saturating concentrations of test compound.
Test [2] concerns GABA receptor-chloride ionophore complex (GR complex). Description: Dissociation kinetics of [35S]TBPS in rat cerebral cortical membranes. As to conditions: alphaxalone 300 nM, 3α-OH-DHP 20 nM. In kind it is binding.
Test [3] concerns number of light/dark transitions (anxiety). The following applies: Blumstein and Crawley, 1983; Crawley et al.; cited from earlier work.
In a further test the target is T2, progesterone receptor (Bos taurus, UniProt F1N712).
T2 construct: from tissue; host or cells: bovine uterus cytosol
T2 sequence (F1N712 1-914): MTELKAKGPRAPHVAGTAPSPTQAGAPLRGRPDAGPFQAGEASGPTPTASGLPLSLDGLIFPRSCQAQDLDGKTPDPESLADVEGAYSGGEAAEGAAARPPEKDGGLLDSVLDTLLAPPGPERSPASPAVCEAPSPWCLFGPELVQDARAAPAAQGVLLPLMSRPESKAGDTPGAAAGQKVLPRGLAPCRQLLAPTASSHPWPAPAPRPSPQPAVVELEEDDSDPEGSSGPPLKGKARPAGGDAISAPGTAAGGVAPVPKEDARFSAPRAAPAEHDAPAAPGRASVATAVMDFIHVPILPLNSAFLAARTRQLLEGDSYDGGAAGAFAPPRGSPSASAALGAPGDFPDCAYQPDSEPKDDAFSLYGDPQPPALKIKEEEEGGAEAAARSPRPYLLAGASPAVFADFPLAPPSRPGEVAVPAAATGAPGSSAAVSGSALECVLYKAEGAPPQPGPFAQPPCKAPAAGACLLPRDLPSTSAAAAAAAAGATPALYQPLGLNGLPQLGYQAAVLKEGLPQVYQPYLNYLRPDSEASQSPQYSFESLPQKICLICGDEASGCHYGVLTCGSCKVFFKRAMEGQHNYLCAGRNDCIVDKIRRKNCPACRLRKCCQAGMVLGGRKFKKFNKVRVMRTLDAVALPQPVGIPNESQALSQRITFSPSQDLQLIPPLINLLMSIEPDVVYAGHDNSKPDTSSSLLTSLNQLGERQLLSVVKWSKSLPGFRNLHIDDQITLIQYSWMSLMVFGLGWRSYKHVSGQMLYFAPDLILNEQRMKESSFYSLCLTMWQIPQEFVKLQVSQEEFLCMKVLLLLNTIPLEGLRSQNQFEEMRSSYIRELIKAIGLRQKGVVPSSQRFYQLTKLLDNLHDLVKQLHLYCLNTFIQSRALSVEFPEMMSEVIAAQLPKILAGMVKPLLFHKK
The experiment in a line: Inhibition of 3H-progesterone binding to bovine uteral progesterone receptors. The protocol: as §1
For the data presented in Table 9, bovine uteri cytosol was isolated as they were for Table 7 and used for following binding to progesterone receptors by following the inhibition of ^3 H-progesterone, the natural ligand.

Test [4] concerns metrazol induced convulsions. The experiment in a line: Inhibition of metrazol induced convulsions (Table 2). The following applies: Mus musculus. It is filed as in vivo, mice. The protocol: Experiments were also performed to determine the physiological relevance of these interactions by measuring the ability of the compound of and used in the invention to modulate TBPS-induced convulsions in Swiss-Webster mice. […] The time to onset of myoclonus (presence of forelimb clonic activity) induced by TBPS was determined by observing each mouse for a period of 45 minutes. Significant differences between the time to onset in control mice vs. steroid-treated mice were determined by Student's t-test. […] The number of animals with tonic and/or clonic convulsions was recorded. In the maximal electroshock test, 50 mA of current at 60 Hz was delivered through corneal electrodes for 200 msec to induce tonic seizure. […] The ED50 (the dose at which the half-maximal effect occurs) was determined for each screen.
Adult male CFI mice (20-30g) were used in these studies. […] Percent protection against metrazol-induced seizures was plotted against time after administration of the compound. […] Ten to twelve mice were used per dose of test drug. […] The number of animals with tonic and/or clonic convulsions was recorded. The ability of the steroid to abolish the tonic component was defined as the endpoint. Sedative potential was determined by a rotorod test where the number of mice staying on a rotating (6 rpm) rod for ≥1 min. in each of three trials was determined.

Test [5] relates to GABA receptor complex (36Cl uptake, cerebral cortical synaptoneurosomes). Description: GABA-stimulated 36Cl uptake in rat cerebral cortical synaptoneurosomes. In kind it is biochemical, rat (male Sprague-Dawley). The procedure: In addition, the ability of the BZ clonazepam to modulate ^36 Cl uptake in the presence or absence of 5α-pregnandiol was evaluated.
The homogenate was diluted to a final volume of 40 mL with buffer and filtered through three layers of Nylon mesh (160 μm).
Aliquots of membrane preparation (200 μL) were preincubated at 30° C. for 10 min. The interaction was initiated by the simultaneous addition of drugs/steroids and 0.2 mL ^36 Cl (New England Nuclear Boston, Mass., 0.55 mCi/mmol, 0.8 μCi/ml) resulting in a total incubation volume of 0.4 mL. Steroids and test drugs were solubilized in dimethylsufoxide (DMSO) and added to the reaction mixture in 2 μL aliquots. An equal volume of vehicle was always included in the control reaction mixture. The mixture was gently mixed and ^36 Cl uptake terminated after 5 sec by the of 5 mL of ice cold buffer containing 100 μM picrotoxin (Sigma Chem Co.) followed immediately by rapid filtration through glass fiber filters (Whatman GF/C) under vacuum. The filters were washed twice with 5 mL of ice-cold buffer and the filter-bound radioactivity quantitated by liquid scintillation spectrophotometry. Specific uptake was calculated by subtracting the amount of ^36 Cl bound to the filters in the absence of synaptoneurosomes from that observed in their presence. Percent enhancement represents percent increase in uptake over that of basal ^36 Cl uptake. Statistical comparisons utilized the analysis of variance (ANOVA).

Where [6] appears, read: read-out: IC50, inhibition of [35S]-TBPS binding, +5 μM GABA, in the presence of 5 μM GABA.
[7] abbreviates: Na pentobarbital 30 μM, 2 nM [35S]TBPS.
The mark [8] stands for this setting: read-out: % of inhibition of 3H-progesterone binding, A, competitor 10^-5 M, 0.15 nM 3H-progesterone.
[9] abbreviates: read-out: % of inhibition of 3H-progesterone binding, B, competitor 10^-5 M, 0.25 nM 3H-progesterone.
Where [10] appears, read: read-out: % of inhibition of 3H-progesterone binding, B, competitor 10^-6 M, 0.25 nM 3H-progesterone.

Structures are written as SMILES. Like-named read-outs stand apart in the source and are kept apart here.

As to `CC(C)(O)[C@H]1CC[C@H]2[C@@H]3CC[C@H]4C[C@H](O)CC[C@]4(C)[C@H]3CC[C@]12C` [3α,20-dihydroxy-20-methyl-5α-pregnane], on estrogen receptor, the inhibition at 1 µM is 0%. Moreover, the IC50 in test [1] (setting [6]) amounted to 65 nM. For the same compound, the “Max. Inhib., maximal % of specifically bound [35S]-TBPS displaced” value in test [1] is reported as 45%.

With `CCCC(C)C1(CC)C(=O)NC(=O)NC1=O` (stereo not shown) [pentobarbital], in test [2] (Na pentobarbital 30 μM), the “Total percentage of specific sites, rapid (R)” value was 48 ± 6% and the “Total percentage of specific sites, slow (S)” value is listed as 61 ± 6%. Moreover, in test [2] (setting [7]), the “K-1, rapidly dissociating component (R)” value worked out at 0.158 ± 0.013 min⁻¹; the “K-1, slowly dissociating component (S)” value came out at 0.0186 ± 0.0015 min⁻¹; the “T1/2, rapidly dissociating component (R)” value came to 4.4 ± 0.3 min; the “T1/2, slowly dissociating component (S)” value is 38 ± 3 min. In test [2] (pentobarbital 30 μM, FIGS. 2A, 2B), the “biphasic dissociation mechanism of [35S]TBPS” value is given as “induces a biphasic dissociation mechanism”. Further, the “effect on number of light/dark transitions (literature)” value in test [3] was “increase the number of transitions”.

On to `C[C@]12CC[C@@H](O)C[C@H]1CC[C@@H]1[C@@H]2CC[C@]2(C)[C@@H](C(=O)CO)CC[C@@H]12` [5β-PREGNAN-3α,21-DIOL-20-ONE], for which the inhibition at 1 µM was determined as 4% on estrogen receptor; 6% at progesterone receptor (read-out: % of inhibition of 3H-progesterone binding, A, competitor 10^-6 M, 0.15 nM 3H-progesterone); 2% at progesterone receptor (setting [10]). Besides, the figures for the inhibition at 10 µM on progesterone receptor (setting [8]) and on progesterone receptor (setting [9]) were 19% and 10%, respectively. For the same compound, in test [1] (setting [6]), the IC50 stood at 100 nM. Also, in test [1], the “Max. Inhib., maximal % of specifically bound [35S]-TBPS displaced” value is 100%. Also, the ED50 in test [4] (inhibition of metrazol induced convulsions, read-out: Anti-Metrazol ED50) was 10 mg/kg.

On to `C[C@H](O)[C@H]1CC[C@H]2[C@@H]3CC[C@H]4C[C@H](O)CC[C@]4(C)[C@H]3CC[C@]12C` [5α-pregnanediol, 5α-pregnan-3α,20α-diol], for which the results for the inhibition at 1 µM at estrogen receptor and at progesterone receptor (setting [10]) were 0% and 1%, respectively. For the same compound, the inhibition at 10 µM on progesterone receptor (setting [8]) worked out at 2%; at progesterone receptor (setting [9]), 3%. The IC50 stood at 82 nM in test [1] (setting [6]) and 359 nM in test [1] (read-out: IC50, inhibition of [35S]-TBPS binding, No GABA, washed synaptoneurosomes, no GABA added). Moreover, the “Max. Inhib., maximal % of specifically bound [35S]-TBPS displaced” value in test [1] came out at 52%. Besides, the ED50 in test [4] (iv, read-out: Anti-Metrazol ED50 (iv)) was determined as 40 mg/kg. The “% enhancement of basal 36Cl uptake” value is given as 2 ± 1% in test [5] (5α-pregnanediol (3 μM), no GABA); 162±4% in test [5] (GABA (25 μM) + 5α-pregnanediol (3 μM)); 192 ± 16% in test [5] (GABA (25 μM) + 5α-pregnanediol (3 μM) + clonazepam (1 μM)). The “maximal enhancement of GABA-stimulated 36Cl uptake above GABA alone” value in test [5] (5α-pregnanediol at 3 μM, GABA 25 μM, FIG. 4) is on record as “approximately 30%”. In test [5] (FIG. 4), the “concentration at which potentiation of GABA-stimulated 36Cl uptake reaches a plateau” value was 3 µM. Moreover, the “3α-OH-DHP potentiation of GABA-stimulated 36Cl uptake as antagonized by 5α-pregnanediol” value in test [5] (from 60% to this value above GABA (25 μM) alone, 3α-OH-DHP 500 nM + 5α-pregnanediol) worked out at 31%. Also, in test [5] (steroid alone, no GABA), the “effect on basal 36Cl uptake” value is “no effect”.

The record behind these values is patent publication US5232917A, “Methods, compositions, and compounds for allosteric modulation of the GABA receptor by members of the androstane and pregnane series” (priority 1991, dated 1993).
